Where a SMILES comes first, the peptide text is derived from it. [ ]: non-standard residue; d: D form.
Legend:
Aβ42 [1] = molecular target: T1, Aβ42 (Homo sapiens, UniProt P05067); assay: ThT assay, fibrillation kinetics of Aβ42; format: biochemical; details: 50 mM NaCl pH 7.4, 20 °C, AmyloFit fit, triplicate
T1 construct: purchased Bachem H-1368.1000
Experimental: ThT was added at a final concentration of 5 μM in all samples. The final volume of each sample was 200 μL. Samples were prepared on ice and were pipetted into a 96-well plate afterwards. The plate was sealed with a microplate sealing film. All measurements were conducted at 20 °C with a microplate reader (Infinite M200, Tecan, Männedorf, Switzerland). The fluorescence was recorded at an excitation wavelength (λex) of 445 nm and an emission wavelength (λem) of 485 nm every 30 min for 120 h. […] All samples were prepared in triplicate.
The ThT data was then subjected to the online server AmyloFit with a customized sigmoidal Equation (1) to determine the lag time tlag , and the half completion time of the aggregation process t1/2 , according to previous studies. (1) It=k0t+A/1+exp−kt−t1/2, where k0 represents the slope of the baseline, A is the amplitude, k denotes the apparent elongation rate constant. The lag time tlag can be derived from the intercept between the time axis and the tangent with slope k from the midpoint of the fitted sigmoidal curve, which is given by the following Equation (2):(2) tlag=t1/2−2/k

Aβ42 [2] = molecular target: T1, Aβ42; assay: Turbidity assay of Aβ42 samples with D3; format: physicochemical; details: 40 μM Aβ42 with 4, 20, 40 and 80 μM D3; 20 mM sodium phosphate, 50 mM NaCl pH 7.4; ambient temperature; directly and after 2 h; UV-Vis
Experimental: The turbidity assay was carried out by measuring the spectra of all samples from 450 nm to 210 nm in a 1 cm quartz cuvette using a V-650 UV-Vis spectrophotometer (Jasco, Tokyo, Japan). The measurements were performed directly after preparing all samples, and repeated after 2 h of incubation at ambient temperature.

Aβ42 [3] = molecular target: T1, Aβ42; assay: Absorbance-based AUC, size distribution of Aβ42 after 24 h; format: biochemical; details: 20 μM Aβ42 with 2 μM D3, 24 h, 20 mM sodium phosphate, 50 mM NaCl pH 7.4, 20 °C; absorbance AUC at 210 nm, 45,000 rpm; compared with Aβ42 alone
Experimental: In brief, 380 μL samples were loaded into 12-mm double-sector aluminum cellsm and were thermally equilibrated prior to the final centrifugation. The centrifugation was performed at 45,000 rpm, 20 °C for 15.5 h. Sedimentation profiles were recorded at 210 nm, with a radial resolution of 20 μm.
All sedimentation profiles were subjected to the software package SEDFIT (version 15.01b) for data evaluation. The data was analyzed with the continuous distribution c(s) Lamm equation model to obtain the sedimentation coefficient distributions. Fitting parameters (Table S1) including the buffer density and viscosity were determined using Sednterp (version 20130813BETA). […] Final graphs were generated using GUSSI (version 1.2.1) and sedimentation coefficients were standardized to s-values in pure water at 20 °C (s20,w).

[4] = molecular target: n-terminally biotinylated Aβ42 monomers; details: read-out: KD for D3 and Aβ42 by SPR; n-terminally biotinylated Aβ42 monomers fixed on sensor chips via biotin-streptavidin; cited from earlier work
[5] = 20 μM Aβ42 with (label D3) or without (label Aβ42) 2 μM D3, 20 mM sodium phosphate, 5 μM ThT
[6] = 20 μM Aβ42 with (label D3, 10:1) or without (label Aβ42) 2 μM D3, 55 mM Tris-HCl

T1 sequence (P05067 672-713 limits assumed): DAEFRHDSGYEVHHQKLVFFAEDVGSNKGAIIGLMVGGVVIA

Question: With CC(C)C[C@@H](NC(=O)[C@@H](CCCNC(=N)N)NC(=O)[C@H](NC(=O)[C@@H](CCCNC(=N)N)NC(=O)[C@H]1CCCN1C(=O)[C@H](N)CCCNC(=N)N)[C@H](C)O)C(=O)N[C@H](Cc1c[nH]cn1)C(=O)N[C@@H](C(=O)N[C@H](Cc1c[nH]cn1)C(=O)N[C@H](CCCNC(=N)N)C(=O)N[C@H](CC(N)=O)C(=O)N[C@H](CCCNC(=N)N)C(N)=O)[C@H](C)O [D3] (H-[dR][dP][dR][dT][dR][dL][dH][dT][dH][dR][dN][dR]-NH2) as the compound, how does the “Half completion time t1/2 of fibrillation kinetics” value (Aβ42 [1]; [5]) read?
Answer: The value was 79.3 ± 2.3 h.

Question: And the “Lag time tlag of fibrillation kinetics” value (Aβ42 [1]; [5])?
Answer: The value was 67.6 ± 3.8 h.

Question: What about the “Slope k of fibrillation kinetics” value (Aβ42 [1]; [5]) of the same compound?
Answer: The value was 0.18 ± 0.07.

Question: What about the “Half completion time t1/2 of fibrillation kinetics, Tris-HCl buffer” value (Aβ42 [1]; [6]) of the same compound?
Answer: Its value is 74.5 ± 2.8 h.

Question: What about the “Lag time tlag of fibrillation kinetics, Tris-HCl buffer” value (Aβ42 [1]; [6]) of the same compound?
Answer: The value was 59.3 ± 2.2 h.

Question: What about the “Slope k of fibrillation kinetics, Tris-HCl buffer” value (Aβ42 [1]; [6]) of the same compound?
Answer: Its value is 0.14 ± 0.04.

Question: What about the “Turbidity (absorbance at 405 nm) of Aβ42 samples on addition of D3” value (Aβ42 [2]) of the same compound?
Answer: Its value is “promotes the rapid formation of co-precipitates in a concentration-dependent manner”.

Question: And the “Size distribution of Aβ42 samples with D3 after 24 h” value (Aβ42 [3])?
Answer: Its value is “no such large aggregates”.

Question: And the Kd [4]?
Answer: The Kd was ~4 µM.
